{
  "source": "patent US12396971B2",
  "about": "“Administration of beta-hydroxybutyrate and related compounds in humans for the treatment and/or prevention of respiratory illnesses” (AXCESS GLOBAL SCIENCES, LLC, priority 2020, dated 2025)",
  "assay_type_in_all_cases": "in vivo, humans",
  "key": {"[1]": {"test_system": "respiratory illness, COVID-19", "test": "Cardiovascular endurance, standard 15 minute cycling test over 4 days", "details": "10 g vs not administered, FIG. 3", "experimental": "(§1) A composition comprising 10 g of R-beta-hydroxybutyrate was administered to individuals twice a day. […] The patients were tested and monitored to determine the impact of administration of beta-hydroxybutyrate on the illness progression and recovery. Administration of the beta-hydroxybutyrate reduced the number of symptoms and the severity of symptoms. […] Since quicker returns to normal values may indicate less chances for long-term continuance of viral respiratory illnesses (e.g., long-haul or long-term Covid-19), administration of beta-hydroxybutyrate may be associated with decreased potential for long-term continuance of symptoms.\nFIG. 3 graphically illustrates endurance capacity monitoring in individuals over 4 days for individuals administered 10 g of R-beta-hydroxybutyrate and not administered 10 g of R-beta-hydroxybutyrate. Cardiovascular endurance was measured using a standard 15 minute cycling test and is illustrated in FIG. 3 as a percentage of normal."}, "[2]": {"test_system": "respiratory illness, COVID-19", "test": "Lung function (FEV) measurements over 4 days", "details": "FIG. 2", "experimental": "as §1\nFIG. 2 graphically illustrates lung function measurements over 4 days for individuals administered 10 g of R-beta-hydroxybutyrate and not administered 10 g of R-beta-hydroxybutyrate. […] As illustrated, improvement in FEV plateaued when beta-hydroxybutyrate was not administered while it continued to improve when R-beta-hydroxybutyrate was administered. Reduction in the chances of plateauing lung function (e.g., at reduced levels) may decrease potential for long-term continuance of symptoms such as those found in long term or long-haul COVID-19 sufferers (e.g., individuals who had COVID-19 and continue to present with symptoms 4 or more weeks after infection)."}, "[3]": {"test_system": "respiratory illness, COVID-19", "test": "Symptoms and recovery monitoring in individuals with COVID-19 administered R-beta-hydroxybutyrate", "details": "composition comprising 10 g twice a day", "experimental": "as §1"}, "[4]": {"test_system": "respiratory illness, COVID-19", "test": "Cough severity by Cough Severity Visual Analogue Scale over 4 days", "details": "10 g, orally, vs not administered, FIG. 1", "experimental": "as §1\nFIG. 1 graphically illustrates cough measured over 4 days for individuals administrated 10 g of R-beta-hydroxybutyrate and not administered 10 g of R-beta-hydroxybutyrate. Cough severity was measured using the Cough Severity Visual Analogue Scale. As illustrated, cough severity was lower with administration of 10 g of R-beta-hydroxybutyrate. Furthermore, cough severity was not as high when beta-hydroxybutyrate was orally administered."}},
  "data": [
    {"smiles": "C[C@@H](O)CC(=O)O", "note": "[R-beta-hydroxybutyrate, (R)-3-Hydroxybutyric acid]", "values": [
      {"measurement": "cardiovascular endurance as a percentage of normal", "setting": "[1]", "value": "overall better"},
      {"measurement": "recovery to normal cardiovascular endurance", "setting": "[1]", "value": "quicker recovery to normal"},
      {"measurement": "time for lung function to improve to normal", "setting": "[2]; 10 g vs not administered (FEV plateaued without)", "value": "improve to normal more quickly"},
      {"measurement": "FEV (as a % of normal FEV)", "setting": "[2]; 10 g vs not administered", "value": "higher overall"},
      {"measurement": "number of symptoms", "setting": "[3]", "value": "reduced"},
      {"measurement": "recovery time", "setting": "[3]", "value": "decreased"},
      {"measurement": "severity of symptoms", "setting": "[3]", "value": "reduced"},
      {"measurement": "cough severity (Cough Severity Visual Analogue Scale)", "setting": "[4]", "value": "lower"}
    ]}
  ]
}
